# Patent publication US9708310B2, “Phenanthroindolizidine and phenanthroquinolizidine alkaloid having a hydroxyl group on the phenanthrene ring thereof, preparation method and use thereof” (CHINA MEDICAL UNIVERSITY, priority 2015, dated 2017)
# How the values were obtained:
# [1] = system: lung carcinoma (H1299) cells; assay: Cell viability (MTT) assay, H1299; assay type: cell-based, human
# Description: (§1) 8. Typical Procedure for Cell Viability Assay
# (§2) The breast carcinoma (MCF-7), lung carcinoma (H1299), and prostate carcinoma (DU145) cells were first plated at a density of 5×10^3 cells per well in 96-well plates for overnight and then treated with different concentrations of these compounds. After 48 h of treatment, 100 µL of MTT solution was added to each well and the cells were incubated for 1 h at 37° C. Then, the MTT solution was completely removed and […] of DMSO was added to solubilize the MTT formazan crystals. Finally, the absorbance was measured using a MQX200R microplate reader (BioTek, VT, USA) at a wavelength of 550 nm.
# [2] = system: prostate carcinoma (DU145) cells; assay: Cell viability (MTT) assay, DU145; assay type: cell-based, human
# Description: as §1, §2
# [3] = system: breast carcinoma (MCF-7) cells; assay: Cell viability (MTT) assay, MCF-7; assay type: cell-based, human
# Description: as §1, §2
# [4] = predicted by PreADMET; cited from earlier work
# physchem = settings: aqueous with cosolvent or surfactant or cyclodextrin
# [5] = system: normal human lung fibroblast cell line, MRC-5; assay: Cytotoxicity against normal lung fibroblasts MRC-5; assay type: cell-based; settings: MRC5
# female athymic nude mice = assay: Rotarod test for motor coordination (neurotoxicity); assay type: in vivo; settings: i.p., 20 at 10 mg/kg vs 5i at 0.08 mg/kg, 15 administrations, 5 rpm, three consecutive days
# From the text: 10. Rotarod Test for Motor Coordination
# The protocol of rotarod test was based on those described in the literature [Y. Z. Lee, C. W Yang, H. Y. Hsu, Y. Q. Qiu, T. K. Yeh, H. Y. Chang, et al., J. Med. Chem. 2012, 55, 10363-10377] with slight modifications. Eight week-old female athymic nude mice were used. All the animal experiments followed ethical standards, and the protocols have been reviewed and approved by the Animal Care and Use Committee of China Medical University (IACUC approval no: 102-235-N). The mice were randomly divided into two groups (n=3) and treated with compound 20 (10 mg/kg) or 7-methoxycryptopleurine 5i (0.08 mg/kg) intraperitoneally. The compounds were dissolved in a mixture of 2.5% DMSO, 2.5% EtOH, 5% Cremophor EL, and 90% normal saline. Each group was administered once daily, five days per week for 15 times in total. After 15 administrations of the compounds, the mice were placed on the rotarod apparatus for training (day 1) and test (days 2-4) with the rod set in motion at a constant speed of 5 rpm. The latency time to fall from the rotating rod was recorded for a maximum of 180 s.
# [6] = system: cyclin D1, CDK4, cyclin E, CDK2, cyclin B1, and CDK1; assay: Western blot of H1299 cell cycle associated protein; assay type: cell-based, human; settings: H1299 cells, 7, 14, and 21 nM, 12, 24, and 48 h
# Description: 9. The Effect of Compound 20 on H1299 Cell Cycle Associated Protein
# 9.1 Western Blot Analysis
# H1299 cells were first seeded at a density of 3×10^5 cells per well in six-well plates overnight and then treated with compound 20 at three different concentrations (7, 14, and 21 nM) for 12, 24, and 48 h. The cells were washed with PBS buffer and lysed in ice-cold RIPA buffer for 30 min. The supernatant was collected and centrifuged at 15,000 rpm at 4° C. for 30 min. The protein concentration was measured with a Bio-Rad assay using a MQX200R microplate reader (BioTek, VT, USA). The cell lysates were separated by 10% SDS-PAGE and electrophoretically transferred onto polyvinylidene difluoride (PVDF) membranes (Millipore, Bedford, Mass.). After several washes, the membranes were blocked with 5% skim milk in TBST (tris-buffered saline containing 0.1% Tween-20) at room temperature for 1 h and incubated with different primary antibodies against cyclin D1, CDK4, cyclin E, CDK2, cyclin B1, and CDK1 (1:2000 dilution) at 4° C. for overnight. […] After washing three times in TBST, the bound antibody was visualized using ECL Western Blotting Reagent (PerkinElmer, Boston), and chemiluminescence was detected using a Fuji Medical X-ray film (Tokyo, Japan).
# All the data were expressed as means±SEM for three replicate experiments. […]
# rats = settings: high doses; cited from earlier work
# [7] = cited from earlier work
# [8] = Solubility in the dosing solvent system; settings: 2.5% DMSO, 2.5% EtOH, 5% Cremophor EL, and 90% normal saline
# [9] = system: MCF-7, H1299, DU145 cancer cell lines; assay type: cell-based, human
# Description: as §2
# The cytotoxic activities of 18 compounds 4a-i and 5a-i were evaluated against three human cancer cell lines, breast carcinoma (MCF-7), lung carcinoma (H1299), and prostate carcinoma (DU145), using tylophorine (4i) and 7-methoxycryptopleurine (5i) for comparison. […] In the phenanthroindolizidine series, the IC50 ratio of compounds 4a-h to tylophorine (4i) followed the order: 4a˜4h˜4e>4f>>4b˜[…]>4d>4g; however, in the phenanthroquinolizidine series, the IC50 ratio of compounds 5a-h to 7-methoxycryptopleurine (5i) followed the order: 5c˜5a˜5h˜5b>>5f˜5d>5e>5g. […] Based on the SAR results, a more polar phenanthroquinolizidine, 7-hydroxycryptopleurine (20), was designed and synthesized to decrease the CNS toxicity and increase the water solubility. […]
# [10] = early clinical trial; cited from earlier work
# [11] = Homo sapiens, NCI-H1299, 48 h treatment
# [12] = Homo sapiens, DU-145, 48 h treatment
# [13] = Homo sapiens, MCF7, 48 h treatment
Compound,IC50 ([1]; 48 h treatment) [nM],IC50 ([2]; 48 h treatment) [nM],IC50 ([3]; 48 h treatment) [nM],"IC50 [1, 11] [nM]","IC50 [2, 12] [nM]",melting point,"IC50 [3, 13] [nM]",further results
"COc1ccc2c3c(c4cc(OC)c(OC)cc4c2c1)CN1CCC[C@H]1C3 [Compound 4b, Deoxypergularinine]",235,176,305,,,,,
COc1ccc2c3c(c4cc(OC)c(OC)cc4c2c1)C[C@H]1C[C@H](O)CCN1C3 [Compound 3],,,,,,,,BBB penetration [4]: significantly reduced the BBB penetration
"COc1ccc2c3c(c4cc(OC)c(OC)cc4c2c1)CN1CCCCC1C3 (centres unmarked) [Compound 5b, Boehmeriasin A]",211,184,272,,,,,
"COc1ccc2c3c(c4cc(OC)c(OC)cc4c2c1)C[C@H]1CCCN1C3 [Compound 4g, Antofine]",32.5,30.3,42.4,,,,,
"COc1cc2c(cc1O)c1c(c3cc(OC)c(OC)cc32)CC2CCCCN2C1 (centres unmarked) [Compound 20, 7-Hydroxy-2,3,6-trimethoxy-10,11,12,13,13a,14-hexahydro-9H-9a-azabenzo[b]triphenylene]",,,,5.2,4.4,114 to 115 °C,6.4,"solubility (physchem): ~1300 µg/mL; IC50 [5]: 26 nM; motor coordination (neurotoxicity), rotarod (female athymic nude mice): better motor coordination than the compound 5i-treated group; cell cycle associated protein expression [6]: decrease in cyclin D1-cdk4, cyclin E-cdk2, and cyclin B1-cdk1 expression"
"COc1cc2c3c(c4cc(OC)c(OC)c(OC)c4c2cc1OC)CN1CCCC1C3 (centres unmarked) [Compound 4e, 2,3,5,6,7-Pentamethoxy-11,12,12a,13-tetrahydro-10H-9a-azacyclopenta[b]triphenylene]",,,,165,150,169 to 170 °C,224,
"COc1cc2c3c(c4c(OC)c(OC)c(OC)cc4c2cc1OC)CN1CCCC1C3 (centres unmarked) [Compound 4h, 2,3,6,7,8-Pentamethoxy-11,12,12a,13-tetrahydro-10H-9a-azacyclopenta[b]triphenylene]",,,,> 2500,> 2500,231 °C (dec.),> 2500,
"COc1cc2c3c(c4c(OC)c(OC)c(OC)cc4c2cc1OC)CN1CCCCC1C3 (centres unmarked) [Compound 5h, 2,3,6,7,8-Pentamethoxy-10,11,12,13,13a,14-hexahydro-9H-9a-azabenzo[b]triphenylene]",,,,232,215,211 °C (dec.),277,
"COc1cc2c3c(c4cc(OC)c(OC)cc4c2cc1OC)CN1CCC[C@@H]1C3 [Compound 1, (R)-tylophorine]",,,,,,,,CNS side effects (rats): caused central nervous system (CNS) side effects; water solubility [7]: low
"COc1cc2c3c(c4cc(OC)c(OC)cc4c2cc1OC)CN1CCCCC1C3 (centres unmarked) [Compound 5i, 7-Methoxycryptopleurine]",7.1,4.5,10.7,,,,,solubility in the solvent system [8]: less than 0.08 mg/mL
"COc1ccc2c(c1)c1c(c3cc(OC)c(OC)cc32)CC2CCCCN2C1 (centres unmarked) [Compound 5f, 2,3,7-Trimethoxy-10,11,12,13,13a,14-hexahydro-9H-9a-azabenzo[b]triphenylene]",,,,57.3,41.8,156 to 158 °C,68.7,fold increase in the cytotoxicity relative to compound 4f [9]: 28-36 fold
"COc1ccc2c(c1)c1c(c3cc(OC)c(OC)cc32)CN2CCCCC2C1 (centres unmarked) [Compound 5c, 2,6,7-Trimethoxy-10,11,12,13,13a,14-hexahydro-9H-9a-azabenzo[b]triphenylene]",,,,314,279,182 to 184 °C,392,
"COc1cc2c3c(c4c(OC)c(OC)c(OC)cc4c2cc1OC)CC1CCCCN1C3 (centres unmarked) [Compound 5a, 1,2,3,6,7-Pentamethoxy-10,11,12,13,13a,14-hexahydro-9H-9a-azabenzo[b]triphenylene]",,,,252,272,191 to 192 °C,276,
"COc1cc2c3c(c4ccc(OC)c(OC)c4c2cc1OC)CN1CCC[C@@H]1C3 [Compound 2, (R)-tylocrebrine]",,,,,,,,clinical trial outcome [10]: failed in the early clinical trial owing to CNS toxicity
"COc1cc2c3c(c4cc(OC)c(OC)c(OC)c4c2cc1OC)CC1CCCN1C3 (centres unmarked) [Compound 4d, 4-Methoxytylophorine]",54.1,58.8,61.2,,,,,
"COc1ccc2c3c(c4cc(OC)c(OC)cc4c2c1)C[C@H]1CCCCN1C3 [Compound 5g, Cryptopleurine]",9,4.6,11.3,,,,,
"COc1cc2c3c(c4cc(OC)c(OC)c(OC)c4c2cc1OC)CC1CCCCN1C3 (centres unmarked) [Compound 5d, 4,7-Dimethoxycryptoplerine]",54.4,35.7,61.9,,,,,
"COc1cc2c3c(c4c(OC)c(OC)c(OC)cc4c2cc1OC)CC1CCCN1C3 (centres unmarked) [Compound 4a, 1,2,3,6,7-Pentamethoxy-11,12,12a,13-tetrahydro-10H-9a-azacyclopenta[b]triphenylene]",,,,> 2500,> 2500,225 to 226 °C,> 2500,
"COc1ccc2c(c1)c1c(c3cc(OC)c(OC)cc32)CN2CCCC2C1 (centres unmarked) [Compound 4c, 2,6,7-Trimethoxy-11,12,12a,13-tetrahydro-10H-9a-azacyclopenta[b]triphenylene]",,,,> 2500,2150,187 to 189 °C,2480,
"COc1cc2c3c(c4cc(OC)c(OC)cc4c2cc1OC)CN1CCC[C@@H]1C3 [Compound 4i, Tylophorine]",30.9,28.3,41.1,,,,,
"COc1cc2c3c(c4cc(OC)c(OC)c(OC)c4c2cc1OC)CN1CCCCC1C3 (centres unmarked) [Compound 5e, 2,3,5,6,7-Pentamethoxy-10,11,12,13,13a,14-hexahydro-9H-9a-azabenzo[b]triphenylene]",,,,27.6,23.8,166 to 167 °C,19.3,
Desmethoxytylophorine [Compound 4f],2020,1510,1910,,,,,
